Results taken from ChEMBL document CHEMBL1144680, “Structure-guided design of aminopyrimidine amides as potent, selective inhibitors of lymphocyte specific kinase: synthesis, structure-activity relationships, and inhibition of in vivo T cell activation” (J Med Chem, 2008).
Calls of active or inactive are those of the source. The calls are words filed in the database; no cut-off is given here.

Experiments:
Blood [1] = assay: Inhibition of anti-CD3-induced IL2 production in human whole blood by ELISA; format: functional, tissue-based
[2] = target: Tyrosine-protein kinase Lyn (Homo sapiens, UniProt P07948); assay: Inhibition of Lyn by HTRF assay
[3] = target: T1, Tyrosine-protein kinase JAK3 (Homo sapiens, UniProt P52333); assay: Inhibition of Jak3 by HTRF assay
T1 sequence (P52333 whole entry): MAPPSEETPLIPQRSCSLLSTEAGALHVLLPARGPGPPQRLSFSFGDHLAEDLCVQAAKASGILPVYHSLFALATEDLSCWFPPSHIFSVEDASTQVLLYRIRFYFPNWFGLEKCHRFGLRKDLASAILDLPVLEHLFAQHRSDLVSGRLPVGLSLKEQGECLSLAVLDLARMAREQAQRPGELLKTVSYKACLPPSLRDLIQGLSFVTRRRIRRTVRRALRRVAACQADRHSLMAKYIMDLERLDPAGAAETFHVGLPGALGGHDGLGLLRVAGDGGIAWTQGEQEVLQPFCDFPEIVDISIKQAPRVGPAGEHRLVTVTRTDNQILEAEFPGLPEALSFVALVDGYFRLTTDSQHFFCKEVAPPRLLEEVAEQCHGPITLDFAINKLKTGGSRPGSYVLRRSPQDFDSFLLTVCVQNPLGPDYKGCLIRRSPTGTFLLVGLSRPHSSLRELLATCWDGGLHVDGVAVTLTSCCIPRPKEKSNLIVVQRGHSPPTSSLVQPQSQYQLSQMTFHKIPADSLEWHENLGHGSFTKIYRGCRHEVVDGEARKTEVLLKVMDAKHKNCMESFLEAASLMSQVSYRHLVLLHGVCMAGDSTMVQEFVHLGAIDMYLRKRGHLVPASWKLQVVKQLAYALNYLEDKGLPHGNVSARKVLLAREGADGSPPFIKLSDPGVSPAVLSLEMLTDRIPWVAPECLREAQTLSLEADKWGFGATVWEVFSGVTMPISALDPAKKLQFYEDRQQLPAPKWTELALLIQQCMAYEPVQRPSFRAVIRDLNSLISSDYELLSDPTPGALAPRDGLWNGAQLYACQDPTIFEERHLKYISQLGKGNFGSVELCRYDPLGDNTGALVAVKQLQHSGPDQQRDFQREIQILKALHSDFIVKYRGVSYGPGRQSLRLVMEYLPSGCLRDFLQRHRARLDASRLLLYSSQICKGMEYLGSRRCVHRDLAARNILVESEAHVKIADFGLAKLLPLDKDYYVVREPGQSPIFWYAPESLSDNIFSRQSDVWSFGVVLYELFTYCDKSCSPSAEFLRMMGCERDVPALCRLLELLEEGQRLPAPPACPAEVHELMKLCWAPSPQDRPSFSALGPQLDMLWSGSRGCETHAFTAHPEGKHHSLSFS

[4] = target: Macrophage colony-stimulating factor 1 receptor (Homo sapiens, UniProt P07333); assay: Inhibition of cFMS by HTRF assay
Mus musculus [5] = organism: Mus musculus; assay: Inhibition of anti-CD3-induced IL2 production in BALB/c mouse; format: functional
[6] = Inhibition of Aurora1 by HTRF assay
[7] = Inhibition of PKAalpha by HTRF assay
Mus musculus [8] = assay: Plasma concentration in BALB/c mouse at 30 mg/kg, po; format: ADME, organism-based; design: dose 30 mg/kg, route oral; settings: in vivo
[9] = Inhibition of IRK by HTRF assay
[10] = target: Serine/threonine-protein kinase PAK 2 (Homo sapiens, UniProt Q13177); assay: Inhibition of PAK2 by HTRF assay
Sequence of Serine/threonine-protein kinase PAK 2 (Q13177 whole entry): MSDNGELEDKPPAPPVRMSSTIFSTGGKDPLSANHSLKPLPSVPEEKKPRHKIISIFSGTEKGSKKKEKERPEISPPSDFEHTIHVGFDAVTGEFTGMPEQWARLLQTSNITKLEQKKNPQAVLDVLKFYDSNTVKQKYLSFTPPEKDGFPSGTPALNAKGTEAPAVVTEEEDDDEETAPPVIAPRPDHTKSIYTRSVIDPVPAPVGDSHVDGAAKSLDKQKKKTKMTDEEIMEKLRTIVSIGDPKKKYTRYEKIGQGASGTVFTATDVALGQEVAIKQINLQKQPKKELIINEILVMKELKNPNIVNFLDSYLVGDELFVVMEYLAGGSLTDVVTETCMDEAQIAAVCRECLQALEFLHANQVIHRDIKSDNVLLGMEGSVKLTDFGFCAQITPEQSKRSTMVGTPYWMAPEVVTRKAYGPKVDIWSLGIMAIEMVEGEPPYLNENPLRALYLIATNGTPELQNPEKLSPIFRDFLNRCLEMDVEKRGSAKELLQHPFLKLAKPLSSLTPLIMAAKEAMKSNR

Mus musculus [11] = assay: Plasma concentration in BALB/c mouse at 100 mg/kg, po; format: ADME, organism-based; design: dose 100 mg/kg, route oral; settings: in vivo
Mus musculus [12] = assay: Inhibition of anti-CD3-induced IL2 production in BALB/c mouse at 10 mg/kg, po by ELISA relative to control; format: functional
Lymphocyte = assay: Inhibition of T cell activation in human peripheral blood lymphocytes by mixed lymphocyte reaction; format: functional, cell-based
[13] = Cmax in Sprague-Dawley rat at 2 mg/kg, po; format: ADME, organism-based; design: dose 2 mg/kg, route oral; settings: in vivo
[14] = Clearance in Sprague-Dawley rat at 0.5 mg/kg, iv; format: ADME, organism-based; design: dose 0.5 mg/kg, route intravenous; settings: in vivo
[15] = target: Tyrosine-protein kinase Lck (Homo sapiens, UniProt P06239)
Sequence of Tyrosine-protein kinase Lck (P06239 whole entry): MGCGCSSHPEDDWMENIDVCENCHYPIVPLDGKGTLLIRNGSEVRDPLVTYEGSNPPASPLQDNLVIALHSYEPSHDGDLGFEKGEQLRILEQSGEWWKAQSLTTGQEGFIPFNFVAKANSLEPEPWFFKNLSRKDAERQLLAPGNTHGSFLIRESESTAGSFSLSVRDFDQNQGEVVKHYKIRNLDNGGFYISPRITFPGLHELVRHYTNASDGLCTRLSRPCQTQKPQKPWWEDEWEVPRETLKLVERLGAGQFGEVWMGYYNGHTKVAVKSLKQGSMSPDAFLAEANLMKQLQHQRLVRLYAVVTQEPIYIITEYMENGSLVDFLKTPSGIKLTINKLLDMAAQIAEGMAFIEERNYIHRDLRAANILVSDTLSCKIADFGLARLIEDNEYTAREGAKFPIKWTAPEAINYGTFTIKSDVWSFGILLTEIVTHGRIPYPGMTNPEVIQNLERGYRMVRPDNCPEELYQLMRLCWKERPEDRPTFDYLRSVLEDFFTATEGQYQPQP
Description: Inhibition of Lck by HTRF assay

[16] = target: Tyrosine-protein kinase Fyn (Homo sapiens, UniProt P06241); assay: Inhibition of Fyn by HTRF assay
[17] = target: Mitogen-activated protein kinase 9 (Homo sapiens, UniProt P45984); assay: Inhibition of JNK2 by HTRF assay
Sequence of Mitogen-activated protein kinase 9 (P45984 whole entry): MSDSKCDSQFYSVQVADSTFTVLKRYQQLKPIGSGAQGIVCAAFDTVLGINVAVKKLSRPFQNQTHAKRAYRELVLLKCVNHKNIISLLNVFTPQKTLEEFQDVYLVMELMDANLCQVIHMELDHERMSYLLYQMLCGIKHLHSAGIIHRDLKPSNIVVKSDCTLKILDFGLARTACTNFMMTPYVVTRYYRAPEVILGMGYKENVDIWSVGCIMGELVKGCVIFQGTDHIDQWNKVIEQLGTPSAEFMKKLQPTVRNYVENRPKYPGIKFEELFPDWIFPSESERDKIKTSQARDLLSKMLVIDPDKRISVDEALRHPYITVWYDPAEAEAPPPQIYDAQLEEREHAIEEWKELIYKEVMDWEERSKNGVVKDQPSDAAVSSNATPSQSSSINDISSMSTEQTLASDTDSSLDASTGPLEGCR

[18] = target: Proto-oncogene tyrosine-protein kinase Src (Homo sapiens, UniProt P12931); assay: Inhibition of Src by HTRF assay
[19] = Half life in Sprague-Dawley rat at 0.5 mg/kg, iv; format: ADME, organism-based; design: dose 0.5 mg/kg, route intravenous; settings: in vivo
[20] = target: Serine/threonine-protein kinase pim-1 (Homo sapiens, UniProt P11309); assay: Inhibition of PIM1 by HTRF assay
Sequence of Serine/threonine-protein kinase pim-1 (P11309 whole entry): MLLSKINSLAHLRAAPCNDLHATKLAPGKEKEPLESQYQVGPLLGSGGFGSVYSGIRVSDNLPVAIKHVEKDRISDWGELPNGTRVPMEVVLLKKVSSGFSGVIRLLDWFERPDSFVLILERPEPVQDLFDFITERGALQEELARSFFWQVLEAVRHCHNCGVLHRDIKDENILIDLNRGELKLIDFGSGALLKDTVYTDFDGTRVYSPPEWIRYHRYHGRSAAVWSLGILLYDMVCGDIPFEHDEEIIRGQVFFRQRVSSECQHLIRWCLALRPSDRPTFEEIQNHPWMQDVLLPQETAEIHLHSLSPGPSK

[21] = target: Macrophage-stimulating protein receptor (Homo sapiens, UniProt Q04912); assay: Inhibition of RON by HTRF assay
[22] = Volume of distribution at steady state in Sprague-Dawley rat at 0.5 mg/kg, iv; format: ADME, organism-based; design: dose 0.5 mg/kg, route intravenous; settings: in vivo, read-out: Vdss
Mus musculus [23] = assay: Inhibition of anti-CD3-induced IL2 production in orally dosed BALB/c mouse by ELISA; format: functional; settings: po
[24] = target: Ribosomal protein S6 kinase alpha-5 (Homo sapiens, UniProt O75582); assay: Inhibition of MSK1 by HTRF assay
[25] = Protein binding in mouse plasma; format: ADME, cell-free; settings: read-out: PB (converted)
[26] = target: Mitogen-activated protein kinase 3 (Homo sapiens, UniProt P27361); assay: Inhibition of ERK1 by HTRF assay
Sequence of Mitogen-activated protein kinase 3 (P27361 whole entry): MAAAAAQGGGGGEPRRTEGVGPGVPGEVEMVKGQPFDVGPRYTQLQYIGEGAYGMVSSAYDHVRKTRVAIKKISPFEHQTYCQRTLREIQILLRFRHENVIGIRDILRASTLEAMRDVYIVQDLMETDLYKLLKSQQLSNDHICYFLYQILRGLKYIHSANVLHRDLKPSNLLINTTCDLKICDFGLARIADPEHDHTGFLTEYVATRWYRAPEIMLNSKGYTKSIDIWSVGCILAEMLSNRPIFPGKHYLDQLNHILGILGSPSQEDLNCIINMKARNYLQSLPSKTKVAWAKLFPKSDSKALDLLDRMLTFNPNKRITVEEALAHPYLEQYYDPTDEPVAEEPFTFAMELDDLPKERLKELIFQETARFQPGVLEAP

[27] = Inhibition of PKBalpha by HTRF assay
Jurkat = assay: Inhibition of IL2 production in human Jurkat cells stimulated with phorbol 12-myristyl 13-acetate in presence of calcium ionophore; format: functional, cell-based
Mus musculus [28] = assay: Plasma concentration in BALB/c mouse at 10 mg/kg, po; format: ADME, organism-based; design: dose 10 mg/kg, route oral; settings: in vivo
Mus musculus [29] = assay: Inhibition of anti-CD3-induced IL2 production in BALB/c mouse at 30 mg/kg, po by ELISA relative to control; format: functional
[30] = target: Tyrosine-protein kinase ITK/TSK (Homo sapiens, UniProt Q08881); assay: Inhibition of Itk by HTRF assay
Sequence of Tyrosine-protein kinase ITK/TSK (Q08881 whole entry): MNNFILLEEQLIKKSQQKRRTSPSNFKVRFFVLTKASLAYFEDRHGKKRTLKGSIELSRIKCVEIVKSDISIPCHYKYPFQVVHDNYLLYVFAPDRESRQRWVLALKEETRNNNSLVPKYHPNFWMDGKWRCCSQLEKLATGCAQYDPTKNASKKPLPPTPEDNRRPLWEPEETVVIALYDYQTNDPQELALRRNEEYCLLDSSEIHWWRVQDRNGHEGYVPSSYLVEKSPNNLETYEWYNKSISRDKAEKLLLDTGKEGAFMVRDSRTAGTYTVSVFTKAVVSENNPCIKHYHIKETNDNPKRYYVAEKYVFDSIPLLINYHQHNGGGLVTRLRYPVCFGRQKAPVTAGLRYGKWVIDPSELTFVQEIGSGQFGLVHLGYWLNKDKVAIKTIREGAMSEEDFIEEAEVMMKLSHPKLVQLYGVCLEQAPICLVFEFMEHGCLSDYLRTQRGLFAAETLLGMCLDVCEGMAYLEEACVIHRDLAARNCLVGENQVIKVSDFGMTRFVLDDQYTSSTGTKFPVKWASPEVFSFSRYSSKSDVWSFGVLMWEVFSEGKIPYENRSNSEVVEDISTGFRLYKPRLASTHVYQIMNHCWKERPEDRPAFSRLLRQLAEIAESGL

[31] = target: Vascular endothelial growth factor receptor 2 (Homo sapiens, UniProt P35968); assay: Inhibition of KDR by HTRF assay
[32] = target: Tyrosine-protein kinase SYK (Homo sapiens, UniProt P43405); assay: Inhibition of Syk by HTRF assay
Plasma = assay: Unbound EC50 of ligand in mouse plasma
Blood [33] = assay: Inhibition of LPS-induced TNFalpha production in human whole blood by ELISA; format: functional, tissue-based
[34] = target: Tyrosine-protein kinase ABL1 (Homo sapiens, UniProt P00519); assay: Inhibition of Abl by HTRF assay
Sequence of Tyrosine-protein kinase ABL1 (P00519 whole entry): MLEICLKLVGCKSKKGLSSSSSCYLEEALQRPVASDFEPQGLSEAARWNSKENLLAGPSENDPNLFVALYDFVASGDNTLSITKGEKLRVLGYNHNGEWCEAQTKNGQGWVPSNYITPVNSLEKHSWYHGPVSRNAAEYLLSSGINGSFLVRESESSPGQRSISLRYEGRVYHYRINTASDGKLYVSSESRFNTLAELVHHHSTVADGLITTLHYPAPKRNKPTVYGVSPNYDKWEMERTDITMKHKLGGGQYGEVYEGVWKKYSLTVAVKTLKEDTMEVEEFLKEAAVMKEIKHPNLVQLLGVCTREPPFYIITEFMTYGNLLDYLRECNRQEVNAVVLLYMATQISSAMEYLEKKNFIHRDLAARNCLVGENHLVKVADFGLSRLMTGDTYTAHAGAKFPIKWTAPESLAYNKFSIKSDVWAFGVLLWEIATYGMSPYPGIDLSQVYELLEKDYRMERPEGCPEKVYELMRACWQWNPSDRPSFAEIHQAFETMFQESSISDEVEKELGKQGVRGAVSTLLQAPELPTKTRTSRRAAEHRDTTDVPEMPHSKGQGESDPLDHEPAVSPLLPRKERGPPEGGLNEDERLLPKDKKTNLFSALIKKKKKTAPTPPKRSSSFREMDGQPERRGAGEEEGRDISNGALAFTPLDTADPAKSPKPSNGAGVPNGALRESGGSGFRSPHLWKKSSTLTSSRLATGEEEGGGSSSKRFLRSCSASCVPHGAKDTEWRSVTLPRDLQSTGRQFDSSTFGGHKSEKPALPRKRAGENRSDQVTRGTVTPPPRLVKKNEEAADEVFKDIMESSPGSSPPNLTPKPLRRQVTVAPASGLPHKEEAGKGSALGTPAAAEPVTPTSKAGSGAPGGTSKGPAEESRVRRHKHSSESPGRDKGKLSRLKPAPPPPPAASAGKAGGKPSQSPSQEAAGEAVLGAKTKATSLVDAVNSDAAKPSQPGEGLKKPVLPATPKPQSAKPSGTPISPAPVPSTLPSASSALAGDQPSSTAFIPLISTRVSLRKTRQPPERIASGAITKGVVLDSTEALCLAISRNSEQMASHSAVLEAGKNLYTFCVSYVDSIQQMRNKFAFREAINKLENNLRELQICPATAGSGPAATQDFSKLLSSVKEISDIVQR

Mus musculus [35] = assay: Inhibition of anti-CD3-induced IL2 production in BALB/c mouse at 100 mg/kg, po by ELISA relative to control; format: functional
Angiopoietin-1 receptor = Angiopoietin-1 receptor (Homo sapiens, UniProt Q02763); assay: Inhibition of Tie2 by HTRF assay
[36] = Inhibition of Aurora2 by HTRF assay
[37] = Tmax in Sprague-Dawley rat at 2 mg/kg; format: ADME, organism-based; design: dose 2 mg/kg; settings: in vivo
[38] = target: Mitogen-activated protein kinase 14 (Homo sapiens, UniProt Q16539); assay: Inhibition of p38alpha by HTRF assay
Sequence of Mitogen-activated protein kinase 14 (Q16539 whole entry): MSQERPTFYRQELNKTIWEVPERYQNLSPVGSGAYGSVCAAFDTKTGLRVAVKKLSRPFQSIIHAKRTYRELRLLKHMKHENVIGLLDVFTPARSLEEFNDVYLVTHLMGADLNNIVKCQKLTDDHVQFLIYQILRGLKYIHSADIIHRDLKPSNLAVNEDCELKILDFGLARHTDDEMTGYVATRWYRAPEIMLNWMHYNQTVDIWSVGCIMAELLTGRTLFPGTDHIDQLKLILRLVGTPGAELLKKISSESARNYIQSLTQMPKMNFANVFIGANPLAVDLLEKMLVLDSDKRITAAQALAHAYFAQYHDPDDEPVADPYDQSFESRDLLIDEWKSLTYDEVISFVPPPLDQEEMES

[39] = Oral bioavailability in Sprague-Dawley rat at 2 mg/kg; format: ADME, organism-based; settings: in vivo
[40] = target: High affinity nerve growth factor receptor (Homo sapiens, UniProt P04629); assay: Inhibition of TrkA by HTRF assay
[41] = Protein binding in rat plasma; format: ADME, cell-free; settings: read-out: PB (converted)
[42] = target: Ribosomal protein S6 kinase beta-1 (Homo sapiens, UniProt P23443); assay: Inhibition of P70S6K by HTRF assay
Sequence of Ribosomal protein S6 kinase beta-1 (P23443 whole entry): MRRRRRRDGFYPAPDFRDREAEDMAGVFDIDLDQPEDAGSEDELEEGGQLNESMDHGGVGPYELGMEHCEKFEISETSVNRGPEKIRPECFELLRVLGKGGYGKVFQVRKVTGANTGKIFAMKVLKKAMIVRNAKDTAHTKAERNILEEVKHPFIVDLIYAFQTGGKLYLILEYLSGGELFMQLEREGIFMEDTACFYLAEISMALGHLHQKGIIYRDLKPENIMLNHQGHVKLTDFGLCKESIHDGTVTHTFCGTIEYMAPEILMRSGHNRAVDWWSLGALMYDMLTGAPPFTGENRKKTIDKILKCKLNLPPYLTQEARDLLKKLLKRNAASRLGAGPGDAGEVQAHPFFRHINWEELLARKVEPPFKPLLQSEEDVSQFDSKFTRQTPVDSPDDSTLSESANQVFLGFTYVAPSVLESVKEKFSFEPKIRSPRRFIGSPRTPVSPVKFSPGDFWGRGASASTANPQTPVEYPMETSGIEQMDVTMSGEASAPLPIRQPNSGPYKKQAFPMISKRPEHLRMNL

[43] = AUC (0 to infinity) in Sprague-Dawley rat at 2 mg/kg, po; format: ADME, organism-based; design: time infinity, dose 2 mg/kg, route oral; settings: plasma

Question: For `Cc1ccc(NC(=O)c2cccc(C(F)(F)F)c2)cc1C(=O)Nc1cnc(Nc2ccc(N3CCN(C)CC3)cc2)nc1`, which IC50 (Blood [1]) is on record?
Answer: 7 nM

Question: And the IC50 [2]?
Answer: 0.9 nM

Question: What about the IC50 [3] of the same compound?
Answer: > 25000 nM

Question: What about the IC50 [4] of the same compound?
Answer: 40 nM

Question: And the Activity (Mus musculus [5])?
Answer: Active

Question: What about the IC50 [6] of the same compound?
Answer: > 8300 nM

Question: What about the IC50 [7] of the same compound?
Answer: > 85000 nM

Question: And the concentration (Mus musculus [8])?
Answer: 434 nM

Question: What about the IC50 [9] of the same compound?
Answer: > 5000 nM

Question: And the IC50 [10]?
Answer: > 25000 nM

Question: And the concentration (Mus musculus [11])?
Answer: 1540 nM

Question: And the inhibition in vivo at 10 mg/kg (Mus musculus [12])?
Answer: 53%

Question: And the IC50 (Lymphocyte)?
Answer: 11 nM

Question: What about the Cmax [13] of the same compound?
Answer: 49 ng/mL

Question: And the clearance [14]?
Answer: 17.3 mL/min/kg

Question: What about the IC50 [15] of the same compound?
Answer: 0.6 nM

Question: What about the IC50 [16] of the same compound?
Answer: 3 nM

Question: And the IC50 [17]?
Answer: 4290 nM

Question: What about the IC50 [18] of the same compound?
Answer: 3 nM

Question: And the half-life [19]?
Answer: 3.2 h

Question: What about the IC50 [20] of the same compound?
Answer: > 30000 nM

Question: And the IC50 [21]?
Answer: > 25000 nM

Question: And the Vd [22]?
Answer: 3.29 L/kg

Question: And the ED50 (Mus musculus [23])?
Answer: 9.4 mg/kg

Question: What about the IC50 [24] of the same compound?
Answer: > 100000 nM

Question: What about the fraction unbound [25] of the same compound?
Answer: 0.022

Question: And the IC50 [26]?
Answer: > 100000 nM

Question: What about the IC50 [27] of the same compound?
Answer: > 100000 nM

Question: And the IC50 (Jurkat)?
Answer: > 20000 nM

Question: And the concentration (Mus musculus [28])?
Answer: 176 nM

Question: And the inhibition in vivo at 30 mg/kg (Mus musculus [29])?
Answer: 89%

Question: What about the IC50 [30] of the same compound?
Answer: > 25000 nM

Question: And the IC50 [31]?
Answer: 24 nM

Question: And the IC50 [32]?
Answer: > 5000 nM

Question: What about the EC50 unbound (Plasma) of the same compound?
Answer: 4 nM

Question: And the IC50 (Blood [33])?
Answer: 718 nM

Question: What about the IC50 [34] of the same compound?
Answer: 2 nM

Question: And the inhibition in vivo at 100 mg/kg (Mus musculus [35])?
Answer: 91%

Question: And the IC50 (Angiopoietin-1 receptor)?
Answer: 9950 nM

Question: And the IC50 [36]?
Answer: > 25000 nM

Question: And the Tmax [37]?
Answer: 4.67 h

Question: And the IC50 [38]?
Answer: 5 nM

Question: And the bioavailability [39]?
Answer: 22%

Question: What about the IC50 [40] of the same compound?
Answer: > 5000 nM

Question: And the fraction unbound [41]?
Answer: 0.006

Question: What about the IC50 [42] of the same compound?
Answer: > 100000 nM

Question: What about the AUC(0-inf) [43] of the same compound?
Answer: 419 ng·h/mL
